Reference: patent publication US20100120715A1, “BETA-LACTAMASE INHIBITORS” (priority 2007, published 2010)
Read-outs that look alike come from different tables or passages of the source.

Experiments:
Class C P99 AmpC = target: T1, Class C P99 AmpC (Enterobacter cloacae, UniProt P05364); format: biochemical; details: purified enzyme; nitrocefin 100 μM, PBS pH 7.0; read-out: P99 AmpC IC50 Range
T1 construct: made in house; host or cells: E. coli BL21(DE3)
Method: (§1) Isolation of β-lactamases. For all examples, purified beta-lactamase enzymes were used to measure a compounds' ability to inhibit the Class A ESBL CTXM-15, the Class C P99 AmpC and the Class A carbapenemase KPC-2. […] The enzyme preparations are described herein.
(§2) For the isolation and purification of SHV-5, p99 AmpC, KPC-2 and CTX-M15 β-lactamases, E. coli BL21(DE3) bacterial cells carrying expression plasmids (expressed as native untagged proteins) for the individual β-lactamases were grown in 1 L of Superbroth (Teknova Inc. Hollister, Calif.) supplemented with 100 μg/ml kanamycin and 1×5052 (0.5% glycerol, 0.05% glucose and 0.2% α-lactose) at 35° C. for 18-20 hours. Cells were harvested by centrifugation (4,000×g, 4° C., 20 min), and resuspended in 50 ml of 10 mM HEPES pH 7.5 ( 1/20 of the initial volume). The cells were lysed by sonication (5 pulses of 45 seconds) at 45 W on ice. The lysates were clarified by centrifugation at 10,000×g for 40 minutes at 4° C. Samples were diluted 5-fold in 50 mM sodium acetate pH 5.0, stored overnight at 4° C., after which they were centrifuged at 10,000×g for 30 minutes to clarify, and filtered through 0.45 μm filters. The samples were loaded onto a 5 ml Capto S sepharose cation exchange column (GE Healthcare) pre-equilibrated with 50 mM sodium acetate pH 5.0. The column was washed with 5 column volumes of 50 mM sodium acetate pH 5.0 to wash out unbound protein and a linear gradient of NaCl (0 to 500 mM) was used to elute the protein (over 16 CV) from the column. Fractions were assayed for β-lactamase activity using Centa (Calbiochem, Gibbstown, N.J.) as a reporter β-lactamase substrate for activity in the isolated fractions. Active fractions were pooled, concentrated and further purified by gel filtration chromatography on a Superdex 75 prep grade gel filtration column (GE Healthcare, Piscataway, N.J.) pre-equilibrated in 50 mM Hepes pH 7.5, 150 mM NaCl. Active fractions were pooled concentrated, quantitated by BCA protein determination (Thermo Scientific, Rockford, Ill.), and frozen at −80° C. in 20% glycerol until use.
(§3) β-lactamase Inhibition. To determine the level of inhibition of β-lactamaseenzymes, compounds were diluted in PBS at pH 7.0 to yield concentrations between 100 and 0.005 μM in microtiter plates. An equal volume of diluted enzyme stock was added, and the plates were incubated at 37° C. for 10 min. Nitrocefin solution was then dispensed as substrate into each well at a final concentration of 100 μM, and the plates were immediately read with the kinetic program at 486 nm for 10 min on the SPECTRAMAX® Plus^384 (high-throughput microplate spectrophotometer; Molecular Devices Corp., Sunnyvale, Calif.). Maximum rates of metabolism were then compared to those in control wells (without inhibitors), and percentages of enzyme inhibition were calculated for each concentration of inhibitor. The concentration of inhibitor needed to reduce the initial rate of hydrolysis of substrate by 50% (IC50) was calculated as the residual activity of β-lactamase at 486 nm using the SoftMax Pro 5.0 software (Molecular Devices Corp.).

[1] = test system: K. pneumoniae expressing the Class A ESBL CTX-M-15; assay: microbe, parasite or virus in culture; format: cell-based; details: in the presence of fixed 8 μg/mL Ceftazidime
Text: To determine the ability of test compounds to potentiate the inhibition of the growth of bacterial strains producing beta-lactamase enzymes, classic cell based screening assays were employed. Four bacteria strains producing beta-lactamase enzymes were used: K. pneumoniae expressing the Class A Extended Spectrum Beta-Lactamase (ESBL) CTX-M-15, E. coli expressing the Class A ESBL SHV-5, E. cloacae expressing the Class C P99+, and K. pneumoniae expressing the Class A carbapenemase KPC-2. In order to evaluate the ability of test compounds to inhibit beta-lactamase activity, Applicants used a modification of the broth microdilution assay. The assay was conducted in Cation Adjusted Mueller Hinton Broth (CAMHB, BD # 212322, BD Diagnostic Systems, Sparks, Md.). Bacteria strains were grown for 3-5 hours in CAMBH broth. All four strains were grown in presence of 50 μg/mL ampicillin to ensure resistance is maintained. In the meantime, test compounds were diluted in DMSO to a 0.1 mg/mL stock. The compounds were added to a microtiter plate and were diluted in 2-fold serial dilutions in CAMHB in a final concentration range of 8 μg/mL to 0.015 μg/ml. […] […] Each of these compound plates are made in quadruplicate, one for each bacteria strain. In addition to the titration of test compounds the MICs of a panel of cephalosporins is also tested to ensure the strains are behaving consistently from test to test. Once the test compound and cephalosporin are added the plates can be inoculated. Inocula are conducted according to CLSI broth microdilution method. After inoculation the plates are incubated for 16-20 hours at 37° C. then the Minimal Inhibitory Concentration (MIC) of the test compound is determined visually.

Class A ESBL CTXM-15 = target: T2, Class A ESBL CTXM-15 (Escherichia coli, UniProt Q9EXV5); assay: β-lactamase enzyme inhibition (nitrocefin hydrolysis), CTXM-15; format: biochemical; details: purified enzyme; nitrocefin 100 μM, PBS pH 7.0; read-out: CTXM-15 IC50 Range
T2 construct: made in house; host or cells: E. coli BL21(DE3)
T2 sequence (Q9EXV5 entry or part of it): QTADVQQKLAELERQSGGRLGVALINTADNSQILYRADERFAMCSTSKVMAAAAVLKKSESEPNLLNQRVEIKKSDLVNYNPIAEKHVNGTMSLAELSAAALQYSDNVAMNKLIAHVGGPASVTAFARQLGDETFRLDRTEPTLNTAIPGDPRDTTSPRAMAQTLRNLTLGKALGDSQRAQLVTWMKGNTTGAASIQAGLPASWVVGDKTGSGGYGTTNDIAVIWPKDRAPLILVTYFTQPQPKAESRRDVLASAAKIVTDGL
Method: as §1, §2, §3

[2] = test system: K. pneumoniae expressing the Class A carbapenemase KPC-2; assay: microbe, parasite or virus in culture; details: in the presence of fixed 8 μg/mL Ceftazidime
Text: To determine the ability of test compounds to potentiate the inhibition of the growth of bacterial strains producing beta-lactamase enzymes, classic cell based screening assays were employed. Four bacteria strains producing beta-lactamase enzymes were used: K. pneumoniae expressing the Class A Extended Spectrum Beta-Lactamase (ESBL) CTX-M-15, E. coli expressing the Class A ESBL SHV-5, E. cloacae expressing the Class C P99+, and K. pneumoniae expressing the Class A carbapenemase KPC-2. In order to evaluate the ability of test compounds to inhibit beta-lactamase activity, Applicants used a modification of the broth microdilution assay. The assay was conducted in Cation Adjusted Mueller Hinton Broth (CAMHB, BD # 212322, BD Diagnostic Systems, Sparks, Md.). Bacteria strains were grown for 3-5 hours in CAMBH broth. All four strains were grown in presence of 50 μg/mL ampicillin to ensure resistance is maintained. In the meantime, test compounds were diluted in DMSO to a 0.1 mg/mL stock. The compounds were added to a microtiter plate and were diluted in 2-fold serial dilutions in CAMHB in a final concentration range of 8 μg/mL to 0.015 μg/ml. An overlay of CAMHB containing a cephalosporin was added to the compounds at a final static concentration of 8 μg/ml. […] Each of these compound plates are made in quadruplicate, one for each bacteria strain. In addition to the titration of test compounds the MICs of a panel of cephalosporins is also tested to ensure the strains are behaving consistently from test to test. Once the test compound and cephalosporin are added the plates can be inoculated. Inocula are conducted according to CLSI broth microdilution method. After inoculation the plates are incubated for 16-20 hours at 37° C. then the Minimal Inhibitory Concentration (MIC) of the test compound is determined visually.

Class A ESBL SHV-5 = target: T3, Class A ESBL SHV-5 (Klebsiella pneumoniae, UniProt P0A3M1); format: biochemical, E. coli; details: nitrocefin 100 μM, PBS pH 7.0, read-out: SHV-5 IC50 Range
T3 construct: made in house; host or cells: E. coli BL21(DE3) for purified enzyme; E. coli cells containing SHV-5 for extracts
T3 sequence (P0A3M1 22-286): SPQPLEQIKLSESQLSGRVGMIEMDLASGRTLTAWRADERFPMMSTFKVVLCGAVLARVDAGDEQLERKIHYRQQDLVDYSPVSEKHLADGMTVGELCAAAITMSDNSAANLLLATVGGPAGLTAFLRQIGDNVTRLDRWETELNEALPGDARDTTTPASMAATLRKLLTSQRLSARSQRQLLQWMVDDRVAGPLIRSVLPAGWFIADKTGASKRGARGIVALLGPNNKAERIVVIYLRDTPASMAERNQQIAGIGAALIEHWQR
Method: as §1
For the preparation of SHV-5 extracts, E. coli cells containing SHV-5 were cultured overnight with shaking at a volume of 20 mL. They were further diluted 10-fold and grown to mid-log phase (OD at 600 nm, 0.5-0.8) in Mueller-Hinton II (MH-II) broth at 37° C. The cells were pelleted at 5000 g, washed and resuspended in 2 mL PBS pH 7.0. The β-lactamase was extracted by four cycles of freezing and thawing followed by centrifugation. β-lactamase activity in the extract was measured with the chromogenic cephalosporin nitrocefin. The amount of protein in each β-lactamase preparation was determined by the bicinchoninic acid (BCA) assay.
as §2, §3

[3] = target: T4, Class A carbapenemase KPC-2 (Klebsiella pneumoniae, UniProt Q9F663); assay: β-lactamase enzyme inhibition (nitrocefin hydrolysis), KPC-2; format: biochemical; details: purified enzyme; nitrocefin 100 μM, PBS pH 7.0; read-out: KPC-2 IC50 Range
T4 construct: made in house; host or cells: E. coli BL21(DE3)
T4 sequence (Q9F663 25-293 limits assumed): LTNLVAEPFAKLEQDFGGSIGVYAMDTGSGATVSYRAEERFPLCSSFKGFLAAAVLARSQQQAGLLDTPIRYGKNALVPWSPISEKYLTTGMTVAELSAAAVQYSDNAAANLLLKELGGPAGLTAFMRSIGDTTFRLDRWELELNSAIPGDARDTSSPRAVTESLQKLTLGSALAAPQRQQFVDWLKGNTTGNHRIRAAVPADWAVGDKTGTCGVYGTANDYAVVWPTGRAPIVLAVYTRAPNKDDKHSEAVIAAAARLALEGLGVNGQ
Method: as §1, §2, §3

[4] = cellular extracts of E. coli containing SHV-5 (Examples 2-30)

T1 sequence (P05364 21-381): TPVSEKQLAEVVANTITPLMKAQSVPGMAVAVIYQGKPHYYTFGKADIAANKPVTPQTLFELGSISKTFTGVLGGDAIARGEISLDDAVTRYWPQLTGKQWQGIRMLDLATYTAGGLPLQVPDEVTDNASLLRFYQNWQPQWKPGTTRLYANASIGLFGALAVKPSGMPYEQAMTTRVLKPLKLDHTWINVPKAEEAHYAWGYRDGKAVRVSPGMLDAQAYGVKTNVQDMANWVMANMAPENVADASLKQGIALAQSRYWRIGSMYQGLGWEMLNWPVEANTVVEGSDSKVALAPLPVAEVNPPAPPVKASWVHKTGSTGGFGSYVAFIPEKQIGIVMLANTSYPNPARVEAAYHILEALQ

Row | SMILES | IC50 (Class C P99 AmpC) | MIC of example compound, K. pneumoniae CTX-M-15 + 8 μg/mL CAZ [1] | IC50 (Class A ESBL CTXM-15) | MIC of example compound, K. pneumoniae KPC-2 + 8 μg/mL CAZ [2] | IC50 (Class A ESBL SHV-5; [4]) | IC50 [3] | IC50 (Class A ESBL SHV-5; purified beta-lactamase enzyme (Examples 1 and 31-64))
1 | CC(=O)N[C@@H](Cc1cccc(C(=O)O)c1O)B(O)O [Example 6, (1R)-1-(2-acetylamino)-2-(2-hydroxy-3-carboxyphenyl)ethyl-1-boronic acid] | 10 to 100 nM | C (C represents an MIC of <1 μg/mL) | < 10 nM | C (C represents an MIC of <1 μg/mL) | 100 to 1000 nM |  | 
2 | NC(=O)COc1cccc(CC(=O)N[C@@H](Cc2cccc(C(=O)O)c2O)B(O)O)c1 [Example 8, (1R)-1-[(3-carbamoylmethoxy)-phenyl]-acetylamino-(3-carboxy-2-hydroxy), benzyl-methylboronic acid] | < 10 nM | C (C represents an MIC of <1 μg/mL) | < 10 nM | C (C represents an MIC of <1 μg/mL) | < 10 nM |  | 
3 | N[C@H](C(=O)N[C@@H](Cc1cccc(C(=O)O)c1O)B(O)O)c1ccccc1.O=CO [Example 12, (1R,2′S)-1-(2-amino-2-phenylacetylamino)-2-(2-hydroxy-3-carboxyphenyl)ethyl-1-boronic acid formate salt] | 100 to 1000 nM | C (C represents an MIC of <1 μg/mL) | 10 to 100 nM | C (C represents an MIC of <1 μg/mL) | 100 to 1000 nM |  | 
4 | O=C(Cc1cc(O)ccc1O)N[C@@H](Cc1cccc(C(=O)O)c1O)B(O)O [Example 18, (1R)-1-(2-(2,5-dihydroxyphenyl)acetylamino)-2-(2-hydroxy-3-carboxyphenyl)ethyl-1-boronic acid] | < 10 nM | C (C represents an MIC of <1 μg/mL) | < 10 nM |  | < 10 nM | < 10 nM | 
5 | O=C(COCc1ccccc1)N[C@@H](Cc1cccc(C(=O)O)c1O)B(O)O [Example 22, (1R)-1-(2-benzyloxyacetylamino)-2-(2-hydroxy-3-carboxyphenyl)ethyl-1-boronic acid] | 10 to 100 nM | C (C represents an MIC of <1 μg/mL) | < 10 nM | C (C represents an MIC of <1 μg/mL) | < 10 nM | < 10 nM | 
6 | CCCCCCC(=O)N[C@@H](Cc1cccc(C(=O)O)c1O)B(O)O [Example 24, (1R)-1-(heptanoylamino)-2-(2-hydroxy-3-carboxyphenyl)ethyl-1-boronic acid] | < 10 nM | C (C represents an MIC of <1 μg/mL) | < 10 nM | C (C represents an MIC of <1 μg/mL) | < 10 nM | 10 to 100 nM | 
7 | CC(C)(C)CC(=O)N[C@@H](Cc1cccc(C(=O)O)c1O)B(O)O [Example 25, (1R)-1-(3,3-Dimethyl-butyrylamino)-(3-carboxy-2-hydroxy)benzyl-methylboronic acid] | 10 to 100 nM | C (C represents an MIC of <1 μg/mL) | 10 to 100 nM | C (C represents an MIC of <1 μg/mL) | 10 to 100 nM | 10 to 100 nM | 
8 | O=C(N[C@@H](Cc1cccc(C(=O)O)c1O)B(O)O)c1cccc(O)c1 [Example 28, (1R)-1-(3-hydroxybenzoylamino)-2-(2-hydroxy-3-carboxyphenyl)ethyl-1-boronic acid] | < 10 nM | C (C represents an MIC of <1 μg/mL) | < 10 nM | C (C represents an MIC of <1 μg/mL) | 10 to 100 nM | 10 to 100 nM | 
9 | O=C(N[C@@H](Cc1cccc(C(=O)O)c1O)B(O)O)c1ccc(Cl)nc1 [Example 31, (1R)-1-(6-Chloro-pyridine-3-carbonyl)-amino-1-(3-carboxy-2-hydroxy)benzyl-methylboronic acid] | < 10 nM | C (C represents an MIC of <1 μg/mL) | < 10 nM | C (C represents an MIC of <1 μg/mL) |  | < 10 nM | < 10 nM
